Earlier results as cited in patent US20220054615A1 (priority 2018, published 2022).

Experiments:
[1] = test system: human peripheral blood mononuclear cells (PBMCs)
[2] = test system: IgG2a; details: mouse, in vivo
[3] = test system: mouse spleen

CCCCCCCCCCCC(=O)CC(=O)N[C@H](COCC[C@@H](CCCCCCC)OC(=O)CCCCCCCCCCC)COP(=O)([O-])OCCNC(=O)NCCOP(=O)([O-])OC[C@@H](COCC[C@@H](CCCCCCC)OC(=O)CCCCCCCCCCC)NC(=O)CC(=O)CCCCCCCCCCC.[Na+].[Na+] [E6020, dodecanoic acid, (1R,6R, 22R, 27R)-1,27-dihexyl-9,19-dihydroxy-9,19-dioxido-14-oxo-6,22-bis [(1,3-di oxotetradecyl)amino]-4,8,10, 18, 20, 24-hexaoxa-13,15-di aza-9,19-dephosphaheptacosane-1,27-diyl ester, disodium salt]
enhance: GM-CSF, IL-1, IL-6 and TNF-α [1] | IgG2a [2] | GM-CSF, IL-1, IL-6 and TNF-α [3]
